The values that follow come from patent US20190048052A1, “ANTI-MICROBIAL PEPTIDES AND COATINGS” (Board of Regents of the University of Nebraska, priority 2016, published 2019).

The test system of data set [1] is S. aureus USA300. The experiment in a line: Propidium iodide membrane permeation. The data set is classed as cell-based, Staphylococcus aureus. As to the method: Fluorescence spectroscopy was also used to follow bacterial killing. In brief, a serially diluted 10× peptide (10 μL) was made in 96-well coming COSTAR microtiter plates. Propidium iodide (2 μL) was added at 50 μM to each well which was finally incubated with S. aureus USA300 bacteria (88 μL at a final OD600 ˜0.1) with continuous shaking at 100 rpm, 37° C. in a FLUOstar® Omega (BMG LABTECH Inc, NC) microplate reader. The plates were read every 5 minutes for a total duration of 2 hours with excitation and emission wavelengths at 584 nm and 620 nm respectively. Plots were made using averaged readings from duplicated experiments after subtraction of the media control.

Data set [2] concerns S. aureus USA300. In words: Inhibition of biofilm growth (XTT). Format: cell-based, Staphylococcus aureus. The arrangement: unit of the concentration uncertain. As to the method:
Three types of experiments were conducted to evaluate the anti-biofilm activity of these peptides against S. aureus USA300, which was grown in tryptic soy broth (TSB) media in flat bottom, 96-well, polystyrene microtiter plates (Mishra et al. (2015) RSC Advances 5:59758-59769; Dean et al. (2011) BMC Microbiol., 11:114).
The second experiment evaluates the ability of the peptide to inhibit biofilm formation of S. aureus USA300 in 24 hours. In brief, S. aureus USA300 (10^5 CFU/mL) was made in fresh TSB media from exponentially growing bacteria. 180 μL of this bacterial culture was added to each well of the microtiter plates containing 20 μL of 10× peptide solution.

In data set [3] the test system is S. aureus USA300. In words: Confocal microscopy of preformed biofilms, LIVE/DEAD staining. Format: cell-based, Staphylococcus aureus. As to conditions: 25 μM. As to the method:
S. aureus USA300 (10^5 CFU/mL) was made from exponentially growing bacteria. 1800 μL was added to the chamber of cuvettes (borosilicate cover glass systems), and was incubated for 37° C., 24 hours for biofilm formation. Media was then pipetted out and chambers were washed with 1×PBS to remove non-adhered cells. To disrupt the preformed biofilms, 200 μL of 10× stocks of the peptide was added followed by 1800 μL of TSB. Control cuvettes contained water instead of peptide. The cuvettes were again incubated for another 24 hours at 37° C. Subsequently, the supernatant was pipetted out and the chambers were washed with 1×PBS. For evaluation under confocal microscope the biofilms were stained with […] of LIVE/DEAD® kit (Invitrogen Molecular Probes) according to the manufacturer's instructions. The samples were examined with a confocal laser scanning microscope (Zeiss 710) and the data processed using Zen 2010 software.

For the next data set, the system named is human red blood cells. In words: Hemolytic ability (Example 3). As to conditions: concentration that causes 50% hemolysis. Format: cell-based. Summed up:
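Human red blood cells were washed three times in PBS, diluted to 2%, exposed to peptide for one hour at 37 °C and centrifuged. Hemoglobin in the supernatant was read at 545 nm. Percent lysis is relative to 1% Triton X-100 (100%) and PBS (0%).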

In data set [4] the test system is S. aureus USA300. In words: Propidium iodide membrane permeation (Example 3). As to conditions: 3.1 μM. The data set is classed as cell-based, Staphylococcus aureus. The procedure:
FIGS. 15A and 15B show the growth inhibition (FIG. 15A) and propidium iodide-based membrane permeation (FIG. 15B) of S. aureus USA300 in TSB media by 3.1 μM of TetraF2W-RR and its single arginine variants (Table 8) at 37° C. with shaking at 100 rpm.
Fluorescence spectroscopy was also used to follow bacterial killing. In brief, μL of serially diluted 10× peptide concentrations were done in 96-well coming COSTAR microtiter plates. Propidium iodide at a fixed concentration of 20 μM per well was added to each well which was finally incubated with 88 μL of S. aureus USA300 (with a final OD600 0.1) with continuous shaking at 100 rpm with meander corner well shaking, 37° C. in a FLUOstar® Omega (BMG LABTECH Inc., NC) microplate reader. The plates were read every 5 minutes for a total duration of 2 hours with excitation and emission wavelengths at 584 nm and 620 nm, respectively.

Another data set addresses T1, S. aureus V8 protease (Staphylococcus aureus, UniProt P0C1U8).
T1 construct: purchased Sigma or Fisher
The data set is classed as in vitro ADME. As to conditions: peptide:protease 40:1, 24 hours, 37° C. The procedure:
When degraded, no peptide band could be detected on a 5% stacking/18% resolving tricine gel after 2-4 hours incubation at 37° C. Briefly, a solution (100 μL) containing 250 μM peptide and 6.25 μM protease (Sigma or Fisher) in 10 mM PBS buffer (pH 8) was incubated at 37° C. (peptide/protease molar ratio, 40:1). Aliquots (10 μL) of the reaction solutions were taken at 0, 6, and 24 hours and immediately mixed with 10 μL of 2× SDS loading buffer followed by boiling for 5 minutes to stop the reaction. […] After electrophoresis, the gel was stained by Brilliant Blue R-250 (Fisher) and destained to view the peptide bands.

The structures appear in SMILES notation. Residues, ends and D or L forms follow the SMILES beside them.

T1 sequence (P0C1U8 69-336): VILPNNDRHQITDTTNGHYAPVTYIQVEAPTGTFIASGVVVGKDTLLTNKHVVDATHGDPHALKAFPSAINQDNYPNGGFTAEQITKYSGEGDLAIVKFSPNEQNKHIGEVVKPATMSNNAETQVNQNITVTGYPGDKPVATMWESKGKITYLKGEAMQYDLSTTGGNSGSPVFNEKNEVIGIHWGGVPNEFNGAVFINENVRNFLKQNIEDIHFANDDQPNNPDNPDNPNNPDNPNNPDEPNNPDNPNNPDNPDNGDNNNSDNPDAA

For the molecule `CC[C@H](C)[C@H](NC(=O)[C@H](CCCNC(=N)N)NC(=O)[C@H](CCCNC(=N)N)NC(=O)[C@H](CC(C)C)NC(=O)[C@H](Cc1c[nH]c2ccccc12)NC(=O)[C@H](Cc1c[nH]c2ccccc12)NC(=O)[C@@H](N)Cc1c[nH]c2ccccc12)C(=O)N[C@@H](Cc1c[nH]c2ccccc12)C(N)=O` [TetraF2W-RR, WWWLRRIW] (H-WWWLRRIW-NH2; N-terminus assumed), the “propidium iodide fluorescence change after treatment” value in the data set on S. aureus USA300 [1] was “most effective in damaging the membranes”. In addition, the “inhibition of biofilm growth” value in the data set with S. aureus USA300 [2] (6.25 (unit uncertain) as printed) is “actively inhibited biofilm growth”. Also, the “inhibition of biofilm formation” value in the data set with S. aureus USA300 [2] (25 (unit uncertain) as printed) is listed as “completely inhibited”. For the same molecule, in the data set on S. aureus USA300 [3], the “killing in 24 hour preformed biofilms (LIVE/DEAD confocal)” value is reported as “capable of killing S. aureus USA300 in 24 hour biofilms”. For the same molecule, in the data set with human red blood cells, the HL50 stood at 35 µM. Also, the “membrane permeation by propidium iodide” value in the data set with S. aureus USA300 [4] is recorded as “most potent”.

As to `CC[C@H](C)[C@H](NC(=O)[C@H](CCCCN)NC(=O)[C@H](CCCNC(=N)N)NC(=O)[C@H](CC(C)C)NC(=O)[C@H](Cc1c[nH]c2ccccc12)NC(=O)[C@H](Cc1c[nH]c2ccccc12)NC(=O)[C@@H](N)Cc1c[nH]c2ccccc12)C(=O)N[C@@H](Cc1c[nH]c2ccccc12)C(N)=O` [TetraF2W-RK, WWWLRKIW] (H-WWWLRKIW-NH2; N-terminus assumed), on S. aureus V8 protease, the “stability to S. aureus V8 protease” value is “not cut”.
